Columns and labels:
[1] = Measurement of particle size, polydispersity index and zeta potential of lipid nanoparticle (Zetasizer); assay type: physicochemical
Experimental: 30 μL of each of the dialyzed lipid nanoparticle-containing solutions obtained by the above operation was measured out, 800 μL of ultrapure water was added to dilute the lipid nanoparticle-containing solution, and the diluted preparation solution was used to measure the particle size (nm) and the polydispersity index (PDI) by using a Zetasizer (manufactured by Malvern Panalytical, Zetasizer nano Ultra). The particle size was evaluated by Z-average in ultrapure water. The zeta potential was measured by using pH 7.4 Tris-HCl as a dilute solution.

[2] = siRNA / mRNA encapsulation rate of lipid nanoparticle (RiboGreen); assay type: physicochemical; settings: mRNA encapsulation rate of lipid nanoparticle (Table 3)
Experimental: The siRNA encapsulation rate and the mRNA encapsulation rate of the lipid nanoparticle were obtained as follows. First, a surfactant (Sigma-Aldrich, Triton (registered trademark), X-100 (reducing type)) was added to the lipid nanoparticle-containing solution to disrupt the lipid nanoparticle to release the encapsulated siRNA or mRNA. The amounts of the lipid nanoparticle-containing solution and the surfactant were adjusted such that the siRNA or the mRNA was 2 pmol and the surfactant was 1% in 40 μL of the solution after adding the surfactant to the lipid nanoparticle-containing solution. Next, the RiboGreen reagent (reagent that reacts with siRNA to emit fluorescence, manufactured by Thermo Fisher Scientific, Quant-iT (registered trademark) RiboGreen (registered trademark) RNA Assay Kit) was added to the solution, and the fluorescence intensity was measured under conditions of an excitation wavelength of 480 nm and a fluorescence wavelength of 520 nm with a fluorescence intensity meter (manufactured by TECAN, Infinite M200). Specifically, 75 μL of the RiboGreen reagent diluted to 1/2000 was added to a diluted solution obtained by adding 65 μL of citrate buffer to 10 μL of the solution, and the fluorescence intensity was measured. This makes it possible to relatively measure the total amount of the siRNA or the total amount of the mRNA present in the solution.
Subsequently, the RiboGreen reagent was added to the lipid nanoparticle-containing solution without adding a surfactant, and the fluorescence intensity was measured in the same manner with a fluorescence intensity meter. By not adding a surfactant, it is possible to relatively measure the amount of the siRNA or the mRNA free in the solution without being encapsulated in the lipid nanoparticle.
Then, the fluorescence intensity obtained from the solution to which the surfactant was added obtained as described above was fluorescence intensity a, and the fluorescence intensity thus obtained from the solution to which no surfactant was added obtained as described above was fluorescence intensity b, and according to the expression (a−b)/a×100, the siRNA encapsulation rate (%) or the mRNA encapsulation rate (%) of the lipid nanoparticle was obtained. Each of fluorescence intensity a and fluorescence intensity b is a value obtained by subtracting a blank from the arithmetic average value of the results of three measurements for each solution. The blank was measured by carrying out the same operation on a well containing water containing no cell or lipid nanoparticle.

[3] = tested on: HEK293T cells; assay: Evaluation of protein expression effect (luciferase luminescence), Cell experiment 2; assay type: cell-based; settings: lipid nanoparticle containing mRNA, 100 ng mRNA/20 μL per well, 24 hours, amount of luminescence as index
Experimental: (§1) For lipids (Ia), (Ib), and (Ie) of Examples 1, 2, and 5, a cell experiment was carried out by using HEK293T cells and NIH3T3 cells in order to evaluate lipid nanoparticles encapsulating an mRNA. By transfecting the cells with lipid nanoparticles and measuring the amount of a predetermined protein produced, the performance of the lipid nanoparticles used can be evaluated. Hereinafter, the procedure of the cell experiment will be shown.
(§2) A. Seeding of Cells • (i) A liquid medium (DMEM High glucose, FBS+, P/S+) was temperature-controlled in an incubator set at 37° C. • (ii) A cryotube containing cells was taken out from a −80° C. freezer and thawed at once in the incubator set at 37° C. • (iii) A test tube was subjected to a centrifuge to precipitate the cells. • (iv) The supernatant was aspirated, and the liquid medium was added and gently tapped to disperse the cells. • (v) A small amount of the cells-dispersed liquid medium was collected, and the number of cells was observed and counted under a microscope. • (vi) The cells were seeded in three 24-well black plates such that the number of cells was 1×10^4 cells per well. The 24-well black plates were placed in an incubator, and the cells were cultured for 24 hours under conditions of 37° C. and 5% CO2.
(§3) B. Transfection • (i) A lipid nanoparticle-containing solution including an mRNA was concentrated such that the mRNA concentration was 100 ng/20 μL (=0.005 μg/μL). • (ii) A liquid medium (DMEM High glucose, FBS-, P/S-) and FBS were warmed to 37° C., required amounts of the liquid medium and FBS were mixed (FBS concentration of liquid medium at this time: 12.5%), and the prepared liquid medium was filter-sterilized through a 0.22 μm filter. • (iii) The liquid medium supernatant in the 24-well black plates in which the cells were cultured was aspirated and 80 μL per well of the prepared liquid medium was added. • (iv) 20 μL per well of RFW and the lipid nanoparticle-containing solution adjusted to the above concentration was added. • (v) The 24-well black plates were placed in an incubator, and the cells were cultured for 24 hours under conditions of 37° C. and 5% CO2.
(§4) C. Evaluation of Protein Expression Effect (Detection of Gaussia Luciferase (GLuc))
(§5) Evaluation of the protein expression effect was carried out by using Gaussia Luciferase Assay Kit manufactured by Thermo Scientific. • (i) The cells cultured in B. (v) above were taken out from the incubator and allowed to stand at room temperature. • (ii) 20 μL of the supernatant in the plates was collected and added to a fresh 96-well white plate. • (iii) 100× Coelenterazine and Gaussia Glow Assay Buffer attached to the kit were returned to room temperature and mixed at 1:100 to prepare a solution. The prepared solution was added to the supernatant at 50 μL per well by using a multipipette. • (iv) The plate was shielded from light with aluminum foil, allowed to stand for 10 minutes, and then measured for the amount of luminescence with a plate reader (manufactured by TECAN, Infinite M200) (measurement time: 2 seconds), and the protein expression level was calculated by using the resulting amount of luminescence as an index.

[4] = tested on: NIH3T3 cells; assay: as above; assay type: cell-based; settings: lipid nanoparticle containing mRNA, 100 ng mRNA/20 μL per well, 24 hours, amount of luminescence as index
Experimental: as §1, §2, §3, §4, §5

[5] = tested on: HEK293T cells and NIH3T3 cells; assay: Evaluation of toxicity (CellTiter-Fluor Cell Viability Assay, CTF); assay type: cell-based; settings: lipid nanoparticle containing mRNA; number of surviving cells relative to cells without lipid nanoparticle set at 1; one rating per lipid, printed on the HEK293T line
Experimental: as §1
as §2, with “CO2. […]” for “CO2.”
D. Evaluation of Toxicity (CellTiter-Fluor (Registered Trademark) Cell Viability Assay) • (i) The CellTiter-Fluor (registered trademark) Cell Viability (CTF) Assay Reagent was completely thawed in a 37° C. water bath. • (ii) GF-AFC Substrate was uniformly mixed by using a vortex mixer. • (iii) The required amounts of Buffer and GF-AFC Substrate attached to the CTF Assay Reagent (Kit) were mixed at a mixing ratio of 10 mL:10 μL. • (iv) 100 μL per well of the mixed CTF Reagent mixture was added to a 24-well black plate containing the cells cultured in B. (v) above, and the plate was quickly shielded from light with aluminum foil, and then shaken on a plate shaker for 30 seconds. • (v) The plate was placed in an incubator, […], and the cells were cultured for 30 minutes under conditions of 37° C. and 5% CO2. • (vi) The fluorescence intensity was measured with a plate reader (excitation wavelength of 380 nm, fluorescence wavelength of 505 nm). Based on the obtained measurement results, the number of surviving cells was calculated with the fluorescence intensity of cells to which no lipid nanoparticle was added set at 1. […]

PDI ([1]; lipid nanoparticle containing mRNA (Table 3)): 0.232
Zeta potential (mV) ([1]; lipid nanoparticle containing mRNA (Table 3), pH 7.4 Tris-HCl): −4.3 mV
Particle size (nm) ([1]; lipid nanoparticle containing mRNA, main lipid/DPPC/cholesterol=45/10/45 (r1: r1/DSPC/cholesterol/PEG2000-DMG=50/10/38.5/1.5)): 64.4 nm
Encapsulation rate (%) [2]: 93%
SMILES: CCCCCCCCCCCOC(=O)CCCCCN(CCO)CCCCCCCC(=O)OC(CCCCCCCC)CCCCCCCC [Reference Example 1, reference compound]
Protein expression level [3]: 320,000
Protein expression level [4]: 7,000
CTF Assay [5]: ⊚ (When the number of surviving cells was more than 0.80 and 1.00 or less, a rating of double-circle (excellent) was given)

Source: patent US20240148664A1, “LIPID AND COMPOSITION” (SOGO PHARMACEUTICAL CO., LTD., priority 2021, published 2024)
